Experimental data: patent US20240083861A1, “HSD17B13 INHIBITORS AND USES THEREOF” (FL2022-001, Inc., priority 2020, published 2024)

Target: T1, Recombinant human HSD17B13 enzyme (Homo sapiens, UniProt Q7Z5P4)
T1 sequence (Q7Z5P4 20-300): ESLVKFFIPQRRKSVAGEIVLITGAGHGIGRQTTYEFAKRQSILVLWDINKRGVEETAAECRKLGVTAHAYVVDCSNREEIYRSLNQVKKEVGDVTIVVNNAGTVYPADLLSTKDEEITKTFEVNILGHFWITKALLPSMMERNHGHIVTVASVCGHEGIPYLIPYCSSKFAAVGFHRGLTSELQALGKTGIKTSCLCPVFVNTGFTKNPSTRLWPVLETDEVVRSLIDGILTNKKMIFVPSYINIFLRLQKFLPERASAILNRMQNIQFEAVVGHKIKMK
Assay: HSD17b13 NAD(P)H-Glo biochemical assay
Conditions: 50 uM estradiol, 1 mM NAD+, NAD(P)H-Glo luminescence; read-out: HSD17β13 IC50
Outline: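 Recombinant human HSD17B13 in 20 mM Tris pH7.4 with 0.002% Tween-20 and 0.02% BSA was preincubated with inhibitor for 20 minutes at RT. The reaction ran 3 hours at 37° C with 50 uM estradiol and 1 mM NAD+ (final). NADH formed was detected by NAD(P)H-Glo luminescence after 1 hour at RT.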

IC50	SMILES
0.1 to 1 µM	CC(C)N1CCN(c2ncc3c(-c4cc(C(F)(F)F)c(F)c(O)c4F)nn(C)c3n2)CC1 [Compound 18.73, 2,6-Difluoro-3-(6-(4-isopropylpiperazin-1-yl)-1-methyl-1H-pyrazolo[3,4-d]pyrimidin-3-yl)-5-(trifluoromethyl)phenol]
0.1 to 1 µM	Cn1nc(-c2cc(C(F)(F)F)c(F)c(O)c2F)c2cnc(N3CC4CC(C3)N4S(C)(=O)=O)nc21 [Compound 18.74, 2,6-Difluoro-3-(1-methyl-6-(6-(methylsulfony1)-3,6-diazabicyclo[3.1.1]heptan-3-yl)-1H-pyrazolo[3,4-d]pyrimidin-3-y1)-5-(trifluoromethyl)phenol]
0.1 to 1 µM	Cn1nc(-c2cc(C(F)(F)F)c(F)c(O)c2F)c2cnc(N3CCNCC3)nc21 [Compound 18.75, 2,6-Difluoro-3-(1-methyl-6-(piperazin-1-y1)-1H-pyrazolo[3,4-d]pyrimidin-3-y1)-5-(trifluoromethyl)phenol]
< 0.1 µM	Cn1nc(-c2cc(C(F)(F)F)c(F)c(O)c2F)c2cnc(N3CCCC(c4ncccn4)C3)nc21 (stereo not shown) [Compound 18.76, 2,6-Difluoro-3-(1-methyl-6-(3-(pyrimidin-2-y1)piperidin-1-yl)-1H-pyrazolo[3,4-d]pyrimidin-3-y1)-5-(trifluoromethyl)phenol]
< 0.1 µM	COC1CCN(c2ncc3c(-c4cc(C(F)(F)F)c(F)c(O)c4F)nn(C)c3n2)CC1 [Compound 18.77, 2,6-Difluoro-3-(6-(4-methoxypiperidin-1-y1)-1-methyl-1H-pyrazolo[3,4-d]pyrimidin-3-yl)-5-(trifluoromethyl)phenol]
0.1 to 1 µM	Cn1nc(-c2cc(C(F)(F)F)c(F)c(O)c2F)c2cnc(N3CCOC(c4nnc[nH]4)C3)nc21 (stereo not shown) [Compound 18.78, 3-(6-(2-(4H-1,2,4-Triazol-3-yl)morpholino)-1-methyl-1H-pyrazolo[3,4-d]pyrimidin-3-y1)-2,6-difluoro-5-(trifluoromethyl)phenol]
0.1 to 1 µM	Cn1nc(-c2cc(C(F)(F)F)c(F)c(O)c2F)c2cnc(N3CCOC(c4ncc[nH]4)C3)nc21 (stereo not shown) [Compound 18.79, 3-(6-(2-(1H-Imidazol-2-yl)morpholino)-1-methyl-1H-pyrazolo[3,4-d]pyrimidin-3-y1)-2,6-difluoro-5-(trifluoromethyl)phenol]
< 0.1 µM	Cn1nc(-c2cc(C(F)(F)F)c(F)c(O)c2F)c2cnc(N3CCOC(c4nccs4)C3)nc21 (stereo not shown) [Compound 18.80, 2,6-Difluoro-3-(1-methyl-6-(2-(thiazol-2-yl)morpholino)-1H-pyrazolo[3,4-d]pyrimidin-3-y1)-5-(trifluoromethyl)phenol]
< 0.1 µM	Cn1nc(-c2cc(C(F)(F)F)c(F)c(O)c2F)c2cnc(N3CCOC(c4ncon4)C3)nc21 (stereo not shown) [Compound 18.81, 3-(6-(2-(1,2,4-Oxadiazol-3-yl)morpholino)-1-methyl-1H-pyrazolo[3,4-d]pyrimidin-3-y1)-2,6-difluoro-5-(trifluoromethyl)phenol]
< 0.1 µM	Cn1nc(-c2cc(C(F)(F)F)c(F)c(O)c2F)c2cnc(N3CCOC(c4cc[nH]n4)C3)nc21 (stereo not shown) [Compound 18.82, 3-(6-(2-(1H-Pyrazol-3-yl)morpholino)-1-methyl-1H-pyrazolo[3,4-d]pyrimidin-3-y1)-2,6-difluoro-5-(trifluoromethyl)phenol]
< 0.1 µM	Cn1nc(-c2cc(C(F)(F)F)c(F)c(O)c2F)c2cnc(N3CCN(S(C)(=O)=O)C4(CCCC4)C3)nc21 [Compound 18.83, 2,6-Difluoro-3-(1-methyl-6-(6-(methylsulfonyl)-6,9-diazaspiro[4.5]decan-9-yl)-1H-pyrazolo[3,4-d]pyrimidin-3-y1)-5-(trifluoromethyl)phenol]
< 0.1 µM	Cn1nc(-c2cc(C(F)(F)F)c(F)c(O)c2F)c2cnc(N3CCN(S(C)(=O)=O)C4(CCCCC4)C3)nc21 [Compound 18.84, 2,6-Difluoro-3-(1-methyl-6-(1-(methylsulfony1)-1,4-diazaspiro[5.5]undecan-4-yl)-1H-pyrazolo[3,4-d]pyrimidin-3-y1)-5-(trifluoromethyl)phenol]
< 0.1 µM	Cn1nc(-c2cc(C(F)(F)F)c(F)c(O)c2F)c2cnc(N3CCN(S(C)(=O)=O)C4(CCOCC4)C3)nc21 [Compound 18.85, 2,6-Difluoro-3-(1-methyl-6-(1-(methylsulfony1)-9-oxa-1,4-diazaspiro[5.5]undecan-4-y1)-1H-pyrazolo[3,4-d]pyrimidin-3-y1)-5-(trifluoromethyl)phenol]
< 0.1 µM	Cn1nc(-c2cc(C(F)(F)F)c(F)c(O)c2F)c2cnc(N3CCO[C@@H](c4ccccc4)C3)nc21 [Compound 18.86, (S)-2,6-Difluoro-3-(1-methyl-6-(2-phenylmorpholino)-1H-pyrazolo[3,4-d]pyrimidin-3-y1)-5-(trifluoromethyl)phenol]
< 0.1 µM	Cn1nc(-c2cc(C(F)(F)F)c(F)c(O)c2F)c2cnc(N3CCO[C@H](c4ccccc4)C3)nc21 [Compound 18.87, (R)-2,6-Difluoro-3-(1-methyl-6-(2-phenylmorpholino)-1H-pyrazolo[3,4-d]pyrimidin-3-y1)-5-(trifluoromethyl)phenol]
< 0.1 µM	Cn1nc(-c2cc(C(F)(F)F)c(F)c(O)c2F)c2cnc(N3CCC(O)(c4cccnc4)CC3)nc21 [Compound 18.88, 1-(3-(2,4-Difluoro-3-hydroxy-5-(trifluoromethyl)phenyl)-1-methyl-1H-pyrazolo[3,4-d]pyrimidin-6-yl)-4-(pyridin-3-yl)piperidin-4-ol]
< 0.1 µM	CN1CC2(CCN(c3ncc4c(-c5cc(C(F)(F)F)c(F)c(O)c5F)nn(C)c4n3)CC2)OC1=O [Compound 18.89, 8-(3-(2,4-Difluoro-3-hydroxy-5-(trifluoromethyl)phenyl)-1-methyl-1H-pyrazolo[3,4-d]pyrimidin-6-yl)-3-methyl-1-oxa-3,8-diazaspiro[4.5]decan-2-one]
< 0.1 µM	Cn1nc(-c2cc(C(F)(F)F)c(F)c(O)c2F)c2cnc(N3CCCC(c4cncnc4)C3)nc21 (stereo not shown) [Compound 18.90, 2,6-Difluoro-3-(1-methyl-6-(3-(pyrimidin-5-y1)piperidin-1-yl)-1H-pyrazolo[3,4-d]pyrimidin-3-y1)-5-(trifluoromethyl)phenol]
< 0.1 µM	Cn1nc(-c2cc(C(F)(F)F)c(F)c(O)c2F)c2cnc(N3CCC(O)(CO)CC3)nc21 [Compound 18.91, 1-(3-(2,4-Difluoro-3-hydroxy-5-(trifluoromethyl)phenyl)-1-methyl-1H-pyrazolo[3,4-d]pyrimidin-6-yl)-4-(hydroxymethyl)piperidin-4-ol]
< 0.1 µM	Cn1nc(-c2cc(C(F)(F)F)c(F)c(O)c2F)c2cnc(N3CCC4(CCO4)CC3)nc21 [Compound 18.92, 2,6-Difluoro-3-(1-methyl-6-(1-oxa-7-azaspiro[3.5]nonan-7-y1)-1H-pyrazolo[3,4-d]pyrimidin-3-y1)-5-(trifluoromethyl)phenol]
< 0.1 µM	Cn1nc(-c2cc(C(F)(F)F)c(F)c(O)c2F)c2cnc(N3CCC(O)(C4CC4)CC3)nc21 [Compound 18.93, 4-Cyclopropyl-1-(3-(2,4-difluoro-3-hydroxy-5-(trifluoromethyl)phenyl)-1-methyl-1H-pyrazolo[3,4-d]pyrimidin-6-y1)piperidin-4-ol]
< 0.1 µM	CN1CCN(c2ncc3c(-c4cc(C(F)(F)F)c(F)c(O)c4F)nn(C)c3n2)CC1c1ccccc1 (stereo not shown) [Compound 18.94, 2,6-Difluoro-3-(1-methyl-6-(4-methyl-3-phenylpiperazin-1-y1)-1H-pyrazolo[3,4-d]pyrimidin-3-yl)-5-(trifluoromethyl)phenol]
< 0.1 µM	Cn1nc(-c2cc(C(F)(F)F)c(F)c(O)c2F)c2cnc(N3CCOC4(CCOCC4)C3)nc21 [Compound 18.95, 2,6-Difluoro-3-(1-methyl-6-(1,9-dioxa-4-azaspiro[5.5]undecan-4-y1)-1H-pyrazolo[3,4-d]pyrimidin-3-y1)-5-(trifluoromethyl)phenol]
< 0.1 µM	Cn1nc(-c2cc(C(F)(F)F)c(F)c(O)c2F)c2cnc(N3CCC(O)(c4ccccn4)CC3)nc21 [Compound 18.96, 1-(3-(2,4-Difluoro-3-hydroxy-5-(trifluoromethyl)phenyl)-1-methyl-1H-pyrazolo[3,4-d]pyrimidin-6-yl)-4-(pyridin-2-y1)piperidin-4-ol]
< 0.1 µM	Cn1nc(-c2cc(C(F)(F)F)c(F)c(O)c2F)c2cnc(N3CCC(O)(c4ccncc4)CC3)nc21 [Compound 18.97, 1-(3-(2,4-Difluoro-3-hydroxy-5-(trifluoromethyl)phenyl)-1-methyl-1H-pyrazolo[3,4-d]pyrimidin-6-yl)-4-(pyridin-4-yl)piperidin-4-ol]
< 0.1 µM	Cn1nc(-c2cc(C(F)(F)F)c(F)c(O)c2F)c2cnc(N3CCCCC3COc3ccccc3)nc21 (stereo not shown) [Compound 18.98, 2,6-Difluoro-3-(1-methyl-6-(2-(phenoxymethyl)piperidin-1-yl)-1H-pyrazolo[3,4-d]pyrimidin-3-yl)-5-(trifluoromethyl)phenol]
< 0.1 µM	Cn1nc(-c2cc(C(F)(F)F)c(F)c(O)c2F)c2cnc(N3CCC4(CCCO4)CC3)nc21 [Compound 18.99, 2,6-Difluoro-3-(1-methyl-6-(1-oxa-8-azaspiro[4.5]decan-8-yl)-1H-pyrazolo[3,4-d]pyrimidin-3-y1)-5-(trifluoromethyl)phenol]
< 0.1 µM	COC1(CO)CCN(c2ncc3c(-c4cc(C(F)(F)F)c(F)c(O)c4F)nn(C)c3n2)CC1 [Compound 18.100, 2,6-Difluoro-3-(6-(4-(hydroxymethyl)-4-methoxypiperidin-1-y1)-1-methyl-1H-pyrazolo[3,4-d]pyrimidin-3-yl)-5-(trifluoromethyl)phenol]
